{"source": "patent US20070071692A1", "about": "“Aerosol powder formulation” (priority 2005, published 2007)", "test": "Particle size of unmilled and jet milled Compound X (optical microscopy, Microtrac, Aerosizer, SEM)", "format": "physicochemical", "excerpt": "In the studies described below the aerosol performance of micronized Compound X with three different grades of lactose made specifically for inhalation in an Spinhaler® is compared. The carriers studied were milled lactose for inhalation (Respitose™ ML003), sieved lactose for inhalation (Respitose SV003) and granulated lactose for inhalation (Respitose LS243). Each carrier was characterized for particle size, flow properties and morphology. Jet milled Compound X, with an average particle size of 2.8 microns was used in the studies. […] Blends were manufactured with 4% w/w drug loading at a scale of 1 g. Capsules were then filled with 25 mg of blend to achieve a 1 mg nominal dose. Each blend was characterized for blend uniformity, dose uniformity and aerodynamic particle size distribution. Granulated lactose produced the weakest drug aerosolization compared to milled and sieved lactose. […] The delivered shot weight was 92% of target with an in-vitro respirable fraction of 26% and an emitted dose of 34%. The formulation is considered appropriate for animal model studies use however optimization of the formulation and the blending characteristics will be pursued following results from the in-vivo animal studies. Three jet milled samples of Compound X observed using X-ray powder diffraction (XRPD) and thermogravimetry (TGA) that the jet milled samples had similar properties to the unmilled lots. The samples retained their crystalline form. By SEM, it was observed that the jet milled drug was smaller in particle size compared to the unmilled drug, while maintaining the needle-like morphology. Drug particle size ranged from ca. 2-25 μm in length and ca. 2 μm in width with agglomerates up to 50 μm in diameter. Only one of the jet milled lots was used for the described studies below.", "data": [{"smiles": "O=C(NC1CC1)c1cn(-c2cccc(C#Cc3ccc[n+]([O-])c3)c2)c2ncccc2c1=O", "note": "[Milled API, N-cyclopropyl-1-[3-(1-oxido-3-pyridinylethynyl)phenyl]-1,4-dihydro[1,8]naphthyridin-4-one-3-carboxamide]", "values": [{"measurement": "Drug particle size, length", "setting": "SEM, jet milled", "value": "2-25 μm"}, {"measurement": "Drug particle size, width", "setting": "SEM, jet milled", "value": "ca. 2 μm"}, {"measurement": "agglomerates, diameter", "setting": "SEM, jet milled", "value": "up to 50 μm"}, {"measurement": "average particle size", "setting": "jet milled drug used in the studies", "value": 2.8, "unit": "microns"}]}]}
